# Test system: yeast genes (expressed mRNA)
# Experiment: DNA chip measurement of expressed mRNA of yeast genes after culture with a toxic chemical substance
# Assay type: cell-based, Saccharomyces cerevisiae S288C
# Summary of the method: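 Two-hour exposure of growing S. cerevisiae S288C (YPD, 25° C) to a sublethal toxicant preceded RNA isolation. Fluorescent cDNA was hybridized to a whole-genome array; a treated-to-untreated signal ratio of two or more was taken as significant.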
smiles,measurement,setting,value
"C=CC=O [(14), Acrolein]",The level of expressed mRNA in the presence of chemical substance/The level of expressed mRNA in the absence of chemical substance,"yeast gene YKL071W, cultured two hours with substance",21.9
same,The level of expressed mRNA in the presence of chemical substance/The level of expressed mRNA in the absence of chemical substance,"yeast gene YKL086W, cultured two hours with substance",2.9
same,The level of expressed mRNA in the presence of chemical substance/The level of expressed mRNA in the absence of chemical substance,"yeast gene YKL151C, cultured two hours with substance",1.3
same,The level of expressed mRNA in the presence of chemical substance/The level of expressed mRNA in the absence of chemical substance,"yeast gene YKL153W, cultured two hours with substance",1.1
same,The level of expressed mRNA in the presence of chemical substance/The level of expressed mRNA in the absence of chemical substance,"yeast gene YKL195W, cultured two hours with substance",1.6
same,The level of expressed mRNA in the presence of chemical substance/The level of expressed mRNA in the absence of chemical substance,yeast gene YKL198C,6.6
same,The level of expressed mRNA in the presence of chemical substance/The level of expressed mRNA in the absence of chemical substance,"yeast gene YKR049C, cultured two hours with substance",2.1
same,The level of expressed mRNA in the presence of chemical substance/The level of expressed mRNA in the absence of chemical substance,yeast gene YKR076W,14.7
same,The level of expressed mRNA in the presence of chemical substance/The level of expressed mRNA in the absence of chemical substance,"yeast gene YKR091W, cultured two hours with substance",1.9
same,The level of expressed mRNA in the presence of chemical substance/The level of expressed mRNA in the absence of chemical substance,"yeast gene YKR097W, cultured for two hours with substance",2.1
same,The level of expressed mRNA in the presence of chemical substance/The level of expressed mRNA in the absence of chemical substance,"yeast gene YLL056C, cultured two hours with substance",11.0
same,The level of expressed mRNA in the presence of chemical substance/The level of expressed mRNA in the absence of chemical substance,yeast gene YLL060C (detoxification protein gene),10.6
same,The level of expressed mRNA in the presence of chemical substance/The level of expressed mRNA in the absence of chemical substance,yeast gene YLL060C (stress protein genes),10.6
same,The level of expressed mRNA in the presence of chemical substance/The level of expressed mRNA in the absence of chemical substance,"yeast gene YLR031W, cultured two hours with substance",1.5
same,The level of expressed mRNA in the presence of chemical substance/The level of expressed mRNA in the absence of chemical substance,"yeast gene YLR054C, cultured two hours with substance",1.1
same,The level of expressed mRNA in the presence of chemical substance/The level of expressed mRNA in the absence of chemical substance,"yeast gene YLR149C, cultured two hours with substance",1.2
same,The level of expressed mRNA in the presence of chemical substance/The level of expressed mRNA in the absence of chemical substance,"yeast gene YLR152C, cultured two hours with substance",1.2
same,The level of expressed mRNA in the presence of chemical substance/The level of expressed mRNA in the absence of chemical substance,"yeast gene YLR194C, cultured two hours with substance",1.2
same,The level of expressed mRNA in the presence of chemical substance/The level of expressed mRNA in the absence of chemical substance,"yeast gene YLR205C, cultured two hours with substance",2.4
same,The level of expressed mRNA in the presence of chemical substance/The level of expressed mRNA in the absence of chemical substance,"yeast gene YLR280C, cultured two hours with substance",0.5
same,The level of expressed mRNA in the presence of chemical substance/The level of expressed mRNA in the absence of chemical substance,"yeast gene YLR324W, cultured two hours with substance",1.4
same,The level of expressed mRNA in the presence of chemical substance/The level of expressed mRNA in the absence of chemical substance,"yeast gene YLR350W, cultured two hours with substance",2.8
same,The level of expressed mRNA in the presence of chemical substance/The level of expressed mRNA in the absence of chemical substance,"yeast gene YLR387C, cultured two hours with substance",1.7
same,The level of expressed mRNA in the presence of chemical substance/The level of expressed mRNA in the absence of chemical substance,"yeast gene YLR408C, cultured two hours with the substance",2.1
same,The level of expressed mRNA in the presence of chemical substance/The level of expressed mRNA in the absence of chemical substance,"yeast gene YLR460C, cultured two hours with substance",3.5
same,The level of expressed mRNA in the presence of chemical substance/The level of expressed mRNA in the absence of chemical substance,"yeast gene YML054C, cultured for two hours with substance",2.1
same,The level of expressed mRNA in the presence of chemical substance/The level of expressed mRNA in the absence of chemical substance,"yeast gene YML087C, cultured for two hours with substance",2.1
same,The level of expressed mRNA in the presence of chemical substance/The level of expressed mRNA in the absence of chemical substance,"yeast gene YML117W, cultured two hours with substance",0.8
same,The level of expressed mRNA in the presence of chemical substance/The level of expressed mRNA in the absence of chemical substance,"yeast gene YMR009W, cultured two hours with substance",1.9
same,The level of expressed mRNA in the presence of chemical substance/The level of expressed mRNA in the absence of chemical substance,"yeast gene YMR067C, cultured two hours with substance",1.5
same,The level of expressed mRNA in the presence of chemical substance/The level of expressed mRNA in the absence of chemical substance,"yeast gene YMR090W, cultured two hours with substance",6.5
same,The level of expressed mRNA in the presence of chemical substance/The level of expressed mRNA in the absence of chemical substance,"yeast gene YMR095C, cultured two hours with substance",2.2
same,The level of expressed mRNA in the presence of chemical substance/The level of expressed mRNA in the absence of chemical substance,"yeast gene YMR096W, DNA repair protein genes, cultured two hours with substance",4.7
same,The level of expressed mRNA in the presence of chemical substance/The level of expressed mRNA in the absence of chemical substance,"yeast gene YMR097C, cultured two hours with substance",2.1
same,The level of expressed mRNA in the presence of chemical substance/The level of expressed mRNA in the absence of chemical substance,"yeast gene YMR102C, cultured two hours with substance",0.7
same,The level of expressed mRNA in the presence of chemical substance/The level of expressed mRNA in the absence of chemical substance,"yeast gene YMR107W, cultured two hours with substance",8.1
same,The level of expressed mRNA in the presence of chemical substance/The level of expressed mRNA in the absence of chemical substance,"yeast gene YMR140W, cultured two hours with substance",1.2
same,The level of expressed mRNA in the presence of chemical substance/The level of expressed mRNA in the absence of chemical substance,"yeast gene YMR180C, cultured two hours with substance",1.7
same,The level of expressed mRNA in the presence of chemical substance/The level of expressed mRNA in the absence of chemical substance,"yeast gene YMR184W, cultured two hours with substance",1.5
same,The level of expressed mRNA in the presence of chemical substance/The level of expressed mRNA in the absence of chemical substance,"yeast gene YMR191W, cultured two hours with substance",1.5
same,The level of expressed mRNA in the presence of chemical substance/The level of expressed mRNA in the absence of chemical substance,"yeast gene YMR195W, cultured two hours with substance",1.3
same,The level of expressed mRNA in the presence of chemical substance/The level of expressed mRNA in the absence of chemical substance,"yeast gene YMR295C, cultured two hours with substance",1.3
